Consider 16 compounds from patent US20080039455A1, “PYRAZOLOPYRIMIDINES AND SALTS THEREOF, PHARMACEUTICAL COMPOSITIONS COMPRISING SAME, METHODS OF PREPARING SAME AND USES OF SAME” (priority 2006, published 2008).

A word on the IC50: it is the concentration at which inhibition is half-maximal.

Assay [1] deals with T1, ALK1 (wildtype full-length ALK1 receptor) (Homo sapiens, UniProt P37023).
T1 construct: expression vector for wildtype full-length ALK1 receptor; expressed in transfected cells; host or cells: HepG2 (ATCC HB-8065), transient transfection with ALK1wt in pcDNA3.1
T1 sequence (P37023 22-503): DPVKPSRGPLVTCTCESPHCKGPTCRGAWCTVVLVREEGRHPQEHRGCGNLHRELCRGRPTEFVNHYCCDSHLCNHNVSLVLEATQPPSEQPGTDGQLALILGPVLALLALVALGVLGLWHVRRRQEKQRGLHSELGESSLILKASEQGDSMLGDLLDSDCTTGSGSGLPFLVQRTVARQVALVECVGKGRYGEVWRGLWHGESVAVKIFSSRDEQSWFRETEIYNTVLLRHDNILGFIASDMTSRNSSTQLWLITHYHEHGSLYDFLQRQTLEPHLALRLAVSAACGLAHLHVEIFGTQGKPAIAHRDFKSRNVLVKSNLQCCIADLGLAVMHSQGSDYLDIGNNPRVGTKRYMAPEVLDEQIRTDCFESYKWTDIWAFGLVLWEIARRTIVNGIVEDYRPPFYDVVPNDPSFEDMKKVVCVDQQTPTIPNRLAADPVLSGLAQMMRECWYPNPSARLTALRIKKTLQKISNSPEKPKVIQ
The assay is described as follows: ALK1 transactivation assay (ID1-promoter luciferase reporter in transfected HepG2 cells). The format is cell-based. Particulars: ID1-luc reporter, 18 h, read-out: Assay 2 (ALK1 transactivation assay IC50 class). An excerpt:
Biological Assay 2: ALK1 Transactivation Assay
Herein HepG2 cell-cultures were transiently transfected by known techniques with an ALK1 plasmid (expression vector for wildtype full-length ALK1 receptor) and ID1 reporter plasmid containing 1.3 kB (−1370 to +86) of the ID1-promoter upstream of a luciferase reporter gene. ID1 is a known target gene of ALK1 and therefore gets transactivated by cotransfection with the ALK1 receptor. The specific transactivation is quantified via relative light units (RLU) which are detected in dependence of luciferase expression. Therefore a commercially available detection kit which contains the luciferase substrate luciferine was used.
HepG2 cells, ATCC HB-8065
96well plate polypropylene for compound dilution in DMSO
DMEM Ham's F12 (Biochrom #F4815) with 10% FCS after dialysis, 1% PenStrep and 200 mM Glutamine
steadyliteHTS (Perkin Elmer# 6016981)
Day 1: Seeding of Cells on 96-Well Plates
HepG2 cells are seeded on 96-well plates at a density of 7000 cells/ well in DMEM/HamsF12+5% FCS (+1% P/S, +1% Gln).
Day 2: Transfection of Cells
200 ng DNA: 100 ng ID1-luc (in pGL3basic, Promega)+5 ng ALK1wt (in pcDNA3.1)+95 ng pcDNA3.1 (empty vector, Invitogen)
Fugene and OptiMEM are incubated for 5 min at RT. This mixture is incubated with the DNA for 15 min at RT.
Afterwards, the plate is incubated under shaking conditions at room temperature (RT) for 1 h. After 4 hours at 37° C. the supernatants are drawn off by suction and the wells are replaced with medium (100 μl/well) containing low serum (0.2% FCS) and test substances.
Plates are incubated for further 18 h at 37° C.
100 μl luciferase substrate (steadyliteHTS, Packard) are added per well and plates are measured after 10 minutes in a luminometer (e.g. Viktor luminometer, Perkin Elmer). Luciferase activity is quantified by relative light units (RLU).
Calculation of IC50: ALK1wt−DMSO Control (without ALK1)=100% Substance(+ALK1wt)−DMSO control (without ALK1)=x % IC50=50% inhibition of ALK1 transactivation activity Biological data are presented below: Biological assay 1: ALK1-Kinase Flashplate-Assay

Assay [2] concerns the target T2, human recombinant ALK1 (GST fused to ALK1 intracellular domain [His142-Gln503]) (Homo sapiens, UniProt P37023).
T2 construct: GST fused to ALK1 intracellular domain [His142-Gln503]; made in house
T2 sequence (P37023 142-503): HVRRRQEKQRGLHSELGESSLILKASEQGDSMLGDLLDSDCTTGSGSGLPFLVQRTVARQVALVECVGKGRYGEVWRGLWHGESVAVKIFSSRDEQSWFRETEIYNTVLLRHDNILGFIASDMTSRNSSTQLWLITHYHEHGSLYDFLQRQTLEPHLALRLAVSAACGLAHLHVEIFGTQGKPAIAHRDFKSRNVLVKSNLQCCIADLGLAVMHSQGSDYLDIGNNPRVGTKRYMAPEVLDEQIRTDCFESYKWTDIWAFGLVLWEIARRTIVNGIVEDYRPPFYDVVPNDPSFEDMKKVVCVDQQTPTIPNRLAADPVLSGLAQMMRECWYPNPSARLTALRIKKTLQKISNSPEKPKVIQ
The assay is described as follows: ALK1-Kinase Flashplate-Assay. The format is biochemical. To be noted: 0.5 μM ATP, biotinylated α-casein substrate; read-out: Assay 1 (ALK1-Kinase Flashplate-Assay IC50 class). The method in brief:
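Radiometric Flashplate assay at 20 °C: GST-ALK1 intracellular domain (5 ng/well) with 1 μM biotinylated bovine α-casein, 0.5 μM ATP plus [γ-33P]ATP in Tris pH 8.0, 1 mM MnCl2, 1% or 5% DMSO, 60 min. Normalised to no-inhibitor (0%) and 10 mM EDTA (100%); IC50 by 4-parameter fit.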

Counter-ions that a name gives are not always drawn.

For `COc1cc(-c2cnn3ccc(Nc4ccccc4)nc23)cc(OC)c1OC` [Example 2, phenyl-[3-(3,4,5-trimethoxy-phenyl)-pyrazolo[1,5-a]pyrimidin-5-yl]-amine], the 50% inhibitory concentration (IC50) was below 10 µM in assay [1] and below 1 µM in assay [2].

Take `COc1cc(-c2cnn3ccc(Nc4ccc(F)cc4)nc23)cc(OC)c1OC` [Example 3, (4-fluoro-phenyl)-[3-(3,4,5-trimethoxy-phenyl)-pyrazolo[1,5-a]pyrimidin-5-yl]-amine]: the IC50 was below 10 µM in assay [1] and below 1 µM in assay [2].

Regarding `COc1cc(OC)cc(-c2cnn3ccc(NC4CCN(C)CC4)nc23)c1` [Example 10, [3-(3,5-Dimethoxy-phenyl)-pyrazolo[1,5-a]pyrimidin-5-yl]-(1-methyl-piperidin-4-yl)-amine], the IC50 is below 10 µM in assay [1] and below 1 µM in assay [2].

Take `COc1ccc(-c2cnn3ccc(Nc4ccc(N5CCOCC5)cc4)nc23)cn1` [Example 20, [3-(6-Methoxy-pyridin-3-yl)-pyrazolo[1,5-a]pyrimidin-5-yl]-(4-morpholin-4-yl-phenyl)-amine]: the IC50 was below 10 µM in assay [1] and below 1 µM in assay [2].

For `FC(F)(F)c1cccc(-c2cnn3ccc(Nc4ccc(N5CCOCC5)nc4)nc23)c1` [Example 26, (6-Morpholin-4-yl-pyridin-3-yl)-[3-(3-trifluoromethyl-phenyl)-pyrazolo[1,5-a]pyrimidin-5-yl]-amine], the half-inhibitory concentration (IC50) in assay [1] was below 10 µM; in assay [2] it was below 1 µM.

Regarding `COc1ccc(-c2cnn3ccc(Nc4ccc(N5CCOCC5)cc4)nc23)cc1OC` [Example 27, [3-(3,4-Dimethoxy-phenyl)-pyrazolo[1,5-a]pyrimidin-5-yl]-(4-morpholin-4-yl-phenyl)-amine], the results for the IC50 in assay [1] and in assay [2] were below 10 µM and below 1 µM, respectively.

With `COc1cc(OC)cc(-c2cnn3ccc(Nc4ccc(N5CCOCC5)nc4)nc23)c1` [Example 30, [3-(3,5-Dimethoxy-phenyl)-pyrazolo[1,5-a]pyrimidin-5-yl]-(6-morpholin-4-yl-pyridin-3-yl)-amine], the half-inhibitory concentration (IC50) in assay [1] is below 10 µM; in assay [2], below 1 µM.

As to `COc1cc(OC)cc(-c2cnn3ccc(Nc4ccc(N5CCOCC5)cc4)nc23)c1` [Example 127, [3-(3,5-Dimethoxy-phenyl)-pyrazolo[1,5-a]pyrimidin-5-yl]-(4-morpholin-4-yl-phenyl)-amine], the 50% inhibitory concentration (IC50) in assay [1] was below 10 µM; in assay [2] it was below 1 µM.

Regarding `CS(=O)(=O)c1cccc(-c2cnn3ccc(Nc4ccc(N5CCOCC5)cc4)nc23)c1` [Example 131, [3-(3-Methanesulfonyl-phenyl)-pyrazolo[1,5-a]pyrimidin-5-yl]-(4-morpholin-4-yl-phenyl)-amine], the values for the IC50 in assay [1] and in assay [2] were below 10 µM and below 1 µM, respectively.

In the case of `COc1cc(-c2cnn3ccc(Nc4ccc(N5CCOCC5)cc4)nc23)cc(OC)c1OC` [Example 421, (4-Morpholin-4-yl-phenyl)-[3-(3,4,5-trimethoxy-phenyl)-pyrazolo[1,5-a]pyrimidin-5-yl]-amine], the IC50 was below 10 µM in assay [1] and below 1 µM in assay [2].

On to `COc1cncc(-c2cnn3ccc(Nc4ccc(N5CCOCC5)cc4)nc23)c1` [Example 422, [3-(5-Methoxy-pyridin-3-yl)-pyrazolo[1,5-a]pyrimidin-5-yl]-(4-morpholin-4-yl-phenyl)-amine], for which the IC50 in assay [1] is below 10 µM; in assay [2], below 1 µM.

On to `Cc1ccc(Nc2ccn3ncc(-c4cccc(O)c4)c3n2)cc1NS(C)(=O)=O` [Example 427, N-{5-[3-(3-Hydroxy-phenyl)-pyrazolo[1,5-a]pyrimidin-5-ylamino]-2-methyl-phenyl}-methanesulfonamide], for which the IC50 is below 10 µM in assay [1] and below 1 µM in assay [2].

In the case of `CC(C)c1ccc(Nc2ccn3ncc(-c4cccc(C(N)=O)c4)c3n2)cc1` [Example 449, 3-[5-(4-Isopropyl-phenylamino)-pyrazolo[1,5-a]pyrimidin-3-yl]-benzamide], the results for the 50% inhibitory concentration (IC50) in assay [1] and in assay [2] were below 10 µM and below 1 µM, respectively.

`COc1ccc(Nc2ccn3ncc(-c4ccc(OC)c(OC)c4)c3n2)cn1` [Example 465, [3-(3,4-Dimethoxy-phenyl)-pyrazolo[1,5-a]pyrimidin-5-yl]-(6-methoxy-pyridin-3-yl)-amine]: the IC50 is below 10 µM in assay [1] and below 1 µM in assay [2].

On to `CN1CCC(Nc2ccn3ncc(-c4cccc(C(F)(F)F)c4)c3n2)CC1` [Example 490, (1-methyl-piperidin-4-yl)-[3-(3-trifluoromethyl-phenyl)-pyrazolo[1,5-a]pyrimidin-5-yl]-amine], for which the half-maximal inhibitory concentration (IC50) in assay [1] was below 10 µM; in assay [2], below 1 µM.

As to `c1csc(-c2cnn3ccc(NC4CCNCC4)nc23)c1` [Example 495, Piperidin-4-yl-(3-thiophen-2-yl-pyrazolo[1,5-a]pyrimidin-5-yl)-amine bis TFA salt], the IC50 in assay [1] is below 10 µM; in assay [2], below 1 µM.
